How the values were obtained:
[1] = system: Kras G12C mutant NCI-H358 cells; assay: Cell proliferation inhibition experiment, 3D cell model, CellTiter-Glo (H358); assay type: cell-based, human; details: NCI-H358, 2% FBS RPMI-1640, 384-well sphere plate, cultured 5 days with compound
Description: (§1) NCI-H358 was a human non-small cell lung cancer cell line with Kras G12C mutation, cultured in 10% FBS RPMI-1640 medium; A549 was a human lung adenocarcinoma cell line with Kras G12S mutation, cultured in 10% FBS F-12K medium. The cells in the logarithmic growth phase was taken, digested with trypsin EDTA, collected and counted, and H358 was adjusted to 1.8E4 cells/ml using 2% FBS RPMI-1640 medium, and A549 was adjusted to 8.9E3 cells/ml using 2% FBS F-12K medium; 800 (45 μl) H358 or 400 (45 μl) A549 cells were seeded in a 384-well sphere plate respectively, cultured overnight to establish a 3D cell model. DMSO was used to prepare 1000× compound 3.16-fold gradient concentration stock solution, and 2% FBS medium was used to dilute 100-fold to 10× compound stock solution. On the second day after cell seeding, 5 μl 10× compound stock solution was added to each cell culture well, the final concentration was 1×, and DMSO content was 0.1%. DMSO was used as the experimental control (control) and 2% FBS medium as the blank control (blank). After the compound and cells were added and cultured for 5 days, 25 μl CellTiter-Glo working solution was added to each well, mixed at 400 rpm and incubated for 30 minutes. After standing 30 minutes at room temperature, 40 μl of the mixture was transfered to a 384-well plate with a non-transparent white bottom, the luminescence chemiluminescence value was read, and the cells proliferation inhibition rate IR (%)=(RLU control-RLU compound)/(RLU control-RLU blank)×100% was calculated, Prism 6 four-parameter method was used to fit the compound's gradient dilution concentration and the corresponding cell proliferation inhibition rate, and the IC50 value was calculated.

[2] = system: A549 cells (Kras G12S mutation); assay: Cell proliferation inhibition experiment, 3D cell model, CellTiter-Glo (A549); assay type: cell-based, human; details: A549, 2% FBS F-12K, 384-well sphere plate, cultured 5 days with compound
Description: as §1

SMILES | IC50 ([1]; Homo sapiens, NCI-H358, 120 h) | IC50 ([2]; Homo sapiens, A549, 120 h) | other results
C=CC(=O)N1CCN(c2nc(OC3CCN(C)CC3)nc3c(OC4CC(F)(F)C4)c(-c4c(C)ccc5[nH]ncc45)c(Cl)cc23)CC1 [Compound Z1, 1-(4-(6-chloro-8-(3,3-difluorocyclobutoxy)-7-(5-methyl-1H-indazol-4-yl)-2-((1-methylpiperidin-4-yl)oxy)quinazolin-4-yl)piperazin-1-yl)prop-2-en-1-one] | 108 nM | > 1000 nM | 
C=CC(=O)N1CCN(c2nc(OC3CCN(C)CC3)nc3c(OC4CCC4)c(-c4c(C)ccc5[nH]ncc45)c(Cl)cc23)CC1 [Compound Z3, 1-(4-(6-chloro-8-cyclobutoxy-7-(5-methyl-1H-indazol-4-yl)-2-((1-methylpiperidin-4-yl)oxy)quinazolin-4-yl)piperazin-1-yl)prop-2-en-1-one] |  |  | IC50 ([1]; Homo sapiens, 120 h): 60 nM; IC50 ([2]; Homo sapiens, 120 h): > 1000 nM
C=CC(=O)N1CCN(c2nc(OC[C@@H]3CCCN3C)nc3c(OC4CCC4)c(-c4c(C)ccc5[nH]ncc45)c(Cl)cc23)CC1 [Compound Z8, 1-(4-(6-chloro-8-cyclobutoxy-7-(5-methyl-1H-indazol-4-yl)-2-(((S)-1-methylpyrrolidin-2-yl)methoxy)quinazolinpyridin-4-yl)piperazin-1-yl)prop-2-en-1-one] | 70 nM | > 10000 nM | 
C=CC(=O)N1CCN(c2nc(O[C@@H]3CCN(C)C3)nc3c(OC4CC4)c(-c4c(C)ccc5[nH]ncc45)c(Cl)cc23)CC1 (single isomer, unassigned) [Compound Z39B] |  |  | IC50 [1]: 12 nM; IC50 [2]: > 30000 nM
C=CC(=O)N1CCN(c2nc(N3CCC(N(C)C)C3)nc3c(OC4CC4)c(-c4c(C)ccc5[nH]ncc45)c(Cl)cc23)CC1 (stereo not drawn) [Compound Z35, 1-(4-(6-chloro-8-cyclopropoxy-2-(3-(dimethylamino)pyrrolidin-1-yl)-7-(5-methyl-1H-indazol-4-yl)quinazolin-4-yl)piperazin-1-yl)prop-2-en-1-one] | 43 nM | > 5000 nM | 
C=CC(=O)N1CCN(c2nc(OC[C@@H]3CCCN3C)nc3c(OC4CC(F)(F)C4)c(-c4c(C)ccc5[nH]ncc45)c(Cl)cc23)[C@@H](C)C1 [Compound Z5] | 311 nM | > 10000 nM | 
C=CC(=O)N1CCN(c2nc(OC[C@@H]3CCCN3C)nc3c(OC4CC4)c(-c4c(C)ccc5[nH]ncc45)c(Cl)cc23)C[C@H]1C [Compound Z30, 1-((2R)-4-(6-chloro-8-cyclopropoxy-7-(5-methyl-1H-indazol-4-yl)-2-((((S)-1-methylpyrrolidin-2-yl))methoxy)quinazolin-4-yl)-2-methylpiperazin-1-yl)prop-2-en-1-one] | 26 nM | > 5000 nM | 
C=CC(=O)N1CCN(c2nc(OC[C@@H]3CCCN3C)nc3c(OC4CC4)c(-c4c(C)ccc5[nH]ncc45)c(Cl)cc23)[C@H](C)C1 [Compound Z27, 1-((3R)-4-(6-chloro-8-cyclopropoxy-7-(5-methyl-1H-indazol-4-yl)-2-(((S)-1-methylpyrrolidin-2-yl)methoxy)quinazolin-4-yl)-3-methylpiperazin-1-yl)prop-2-en-1-one] | 324 nM | > 1000 nM | 
C=CC(=O)N1CCN(c2nc(OC[C@@H]3CCCN3C)nc3c(OC4CC4)c(-c4c(C)ccc5[nH]nc(F)c45)c(Cl)cc23)CC1 [Compound Z47, 1-(4-(6-chloro-8-cyclopropoxy-7-(3-fluoro-5-methyl-1H-indazol-4-yl)-2-((((S)-1-methylpyrrolidin-2-yl))methoxy)quinazolin-4-yl)piperazin-1-yl)prop-2-en-1-one] | 38 nM | > 5000 nM | 
C=CC(=O)N1CCN(c2nc(OC[C@@H]3CCCN3C)nc3c(OC4CC4)c(-c4c(C)ccc5[nH]ncc45)c(OC)cc23)C[C@@H]1CC#N (single isomer, unassigned) [Compound Z50A] | 50 nM | > 10000 nM | 
C=CC(=O)N1CCN(c2nc(OC[C@@H]3CCCN3C)nc3c(OC4CC4)c(-c4c(C)ccc5[nH]ncc45)c(Cl)cc23)[C@@H](C)C1 (single isomer, unassigned) [Compound Z28B] |  |  | IC50 [1]: 4 nM; IC50 [2]: > 1000 nM
C=CC(=O)N1CCN(c2nc(OC[C@@H]3CCCN3C)nc3c(OC4CC4)c(-c4c(C)ccc5[nH]ncc45)c(Cl)cc23)C[C@@H]1CC#N [Compound Z46] |  |  | IC50 [1]: 2 nM; IC50 [2]: > 30000 nM

From patent publication US20220363681A1, “OXO SIX-MEMBERED CYCLOPYRIMIDINE COMPOUND, PREPARATION METHOD AND MEDICAL USE THEREOF” (GenFleet Therapeutics (Shanghai) Inc., priority 2019, published 2022)
